# Data: the OligoGym collection
# HELM strings list units from the 5' end as sugar, base in round brackets, then linkage (d deoxyribose, r ribose, m 2'-O-methyl, p phosphodiester). Strings are as the collection lists them; they lack the last nucleoside at the 3' end of the tested compound. [moe] = 2'-O-(2-methoxyethyl) (MOE); [sp] = phosphorothioate linkage; [m5C] = 5-methylcytosine
# Target: UBE3A-ATS
# Test: mouse, dose not given
# Settings: ASO
row,Substance,3 h FOB score [score 0-7]
1,RNA1{[moe](T)[sp].[moe]([m5C])p.[moe](T)p.[moe](T)p.[moe](G)p.d([m5C])[sp].d(T)[sp].d(G)[sp].d(A)[sp].d(T)[sp].d([m5C])[sp].d(A)[sp].d([m5C])[sp].d(A)[sp].d(T)[sp].[moe](T)p.[moe](A)p.[moe]([m5C])[sp].[moe]([m5C])}$$$$ (last 3' nucleoside missing),0
2,RNA1{[moe](T)[sp].[moe]([m5C])p.[moe](T)p.[moe]([m5C])p.[moe](A)p.d(T)[sp].d(G)[sp].d(T)[sp].d(G)[sp].d(T)[sp].d(T)[sp].d(T)[sp].d(T)[sp].d(T)[sp].d(G)[sp].[moe](T)p.[moe](T)p.[moe]([m5C])[sp].[moe]([m5C])}$$$$ (last 3' nucleoside missing),5
3,RNA1{[moe](T)[sp].[moe]([m5C])p.[moe](T)p.[moe]([m5C])p.[moe](G)p.d(G)[sp].d(G)[sp].d(T)[sp].d(A)[sp].d(T)[sp].d(A)[sp].d(T)[sp].d(A)[sp].d(A)[sp].d(A)[sp].[moe](T)p.[moe](T)p.[moe](A)[sp].[moe](A)}$$$$ (last 3' nucleoside missing),0
4,RNA1{[moe](T)[sp].[moe]([m5C])p.[moe](T)p.[moe]([m5C])p.[moe]([m5C])p.d(A)[sp].d(G)[sp].d(T)[sp].d(T)[sp].d(T)[sp].d(T)[sp].d([m5C])[sp].d(G)[sp].d([m5C])[sp].d([m5C])[sp].[moe]([m5C])p.[moe](G)p.[moe](T)[sp].[moe](T)}$$$$ (last 3' nucleoside missing),4.7
5,RNA1{[moe](T)[sp].[moe]([m5C])p.[moe]([m5C])p.[moe]([m5C])p.[moe](A)p.d(T)[sp].d(T)[sp].d([m5C])[sp].d(A)[sp].d(G)[sp].d([m5C])[sp].d(A)[sp].d([m5C])[sp].d(T)[sp].d(T)[sp].[moe](A)p.[moe](G)p.[moe](G)[sp].[moe](T)}$$$$ (last 3' nucleoside missing),3
6,RNA1{[moe](T)[sp].[moe]([m5C])p.[moe]([m5C])p.[moe]([m5C])p.[moe](A)p.d(T)[sp].d([m5C])[sp].d(A)[sp].d(T)[sp].d([m5C])[sp].d(A)[sp].d(G)[sp].d(T)[sp].d(G)[sp].d(T)[sp].[moe](G)p.[moe](T)p.[moe](G)[sp].[moe]([m5C])}$$$$ (last 3' nucleoside missing),3.25
7,RNA1{[moe]([m5C])[sp].[moe](A)[sp].[moe](A)[sp].[moe]([m5C])[sp].[moe](T)[sp].d(G)[sp].d(T)[sp].d(T)[sp].d(A)[sp].d([m5C])[sp].d([m5C])[sp].d(A)[sp].d(A)[sp].d(G)[sp].d(A)[sp].[moe]([m5C])[sp].[moe](T)[sp].[moe](T)[sp].[moe]([m5C])}$$$$ (last 3' nucleoside missing),4.8
8,RNA1{[moe]([m5C])[sp].[moe](A)p.[moe](A)p.[moe](G)p.[moe](A)p.d([m5C])[sp].d([m5C])[sp].d(T)[sp].d(A)[sp].d(T)[sp].d(A)[sp].d(G)[sp].d(G)[sp].d(A)[sp].d([m5C])[sp].[moe]([m5C])p.[moe](T)p.[moe]([m5C])[sp].[moe](A)}$$$$ (last 3' nucleoside missing),3
9,RNA1{[moe]([m5C])[sp].[moe](A)p.[moe](A)p.[moe](T)p.[moe](G)p.d(G)[sp].d(T)[sp].d(T)[sp].d(T)[sp].d(A)[sp].d(G)[sp].d(T)[sp].d(G)[sp].d(T)[sp].d([m5C])[sp].[moe](A)p.[moe](T)p.[moe](A)[sp].[moe](T)}$$$$ (last 3' nucleoside missing),5
10,RNA1{[moe]([m5C])[sp].[moe](A)p.[moe](A)p.[moe]([m5C])p.[moe](T)p.d(T)[sp].d([m5C])[sp].d(A)[sp].d(T)[sp].d([m5C])[sp].d(A)[sp].d(A)[sp].d(T)[sp].d(A)[sp].d(T)[sp].[moe](T)p.[moe](T)p.[moe]([m5C])[sp].[moe]([m5C])}$$$$ (last 3' nucleoside missing),1
11,RNA1{[moe]([m5C])[sp].[moe](A)p.[moe](G)p.[moe](A)p.[moe](G)p.d(T)[sp].d(G)[sp].d(T)[sp].d([m5C])[sp].d(T)[sp].d(T)[sp].d(A)[sp].d(G)[sp].d(G)[sp].d(G)[sp].[moe](T)p.[moe]([m5C])p.[moe](T)[sp].[moe]([m5C])}$$$$ (last 3' nucleoside missing),5.5
12,RNA1{[moe]([m5C])[sp].[moe](A)p.[moe](G)p.[moe](A)p.[moe](T)p.d(T)[sp].d([m5C])[sp].d([m5C])[sp].d(T)[sp].d(A)[sp].d(A)[sp].d(A)[sp].d(T)[sp].d(A)[sp].d([m5C])[sp].[moe](G)p.[moe]([m5C])p.[moe](A)[sp].[moe]([m5C])}$$$$ (last 3' nucleoside missing),0
13,RNA1{[moe]([m5C])[sp].[moe](A)p.[moe](G)p.[moe](A)p.[moe]([m5C])p.d(T)[sp].d(T)[sp].d(A)[sp].d(T)[sp].d(T)[sp].d(G)[sp].d(A)[sp].d(G)[sp].d(G)[sp].d(A)[sp].[moe](T)p.[moe](G)p.[moe](G)[sp].[moe](T)}$$$$ (last 3' nucleoside missing),5.7
14,RNA1{[moe]([m5C])[sp].[moe](A)p.[moe](G)p.[moe](G)p.[moe](T)p.d(G)[sp].d(T)[sp].d([m5C])[sp].d(T)[sp].d(T)[sp].d(A)[sp].d(T)[sp].d(A)[sp].d(T)[sp].d([m5C])[sp].[moe](T)p.[moe](A)p.[moe](T)[sp].[moe](G)}$$$$ (last 3' nucleoside missing),0
15,RNA1{[moe]([m5C])[sp].[moe](A)p.[moe](G)p.[moe](T)[sp].d(T)[sp].d(A)[sp].d(G)[sp].d(G)[sp].d(T)[sp].d(T)[sp].d(A)[sp].d(G)[sp].[moe](T)p.[moe](G)p.[moe]([m5C])p.[moe](A)[sp].[moe]([m5C])}$$$$ (last 3' nucleoside missing),2
16,RNA1{[moe]([m5C])[sp].[moe](A)p.[moe](G)p.[moe](T)p.[moe](A)p.d(G)[sp].d(T)[sp].d(G)[sp].d(G)[sp].d(T)[sp].d(A)[sp].d(T)[sp].d([m5C])[sp].d(A)[sp].d(A)[sp].[moe](A)p.[moe](T)p.[moe]([m5C])[sp].[moe](T)}$$$$ (last 3' nucleoside missing),6.2
17,RNA1{[moe]([m5C])[sp].[moe](A)p.[moe](G)p.[moe](T)p.[moe](A)p.d(T)[sp].d([m5C])[sp].d(T)[sp].d(T)[sp].d(A)[sp].d(A)[sp].d([m5C])[sp].d(T)[sp].d(G)[sp].d(G)[sp].[moe](T)p.[moe](G)p.[moe](A)[sp].[moe](A)}$$$$ (last 3' nucleoside missing),1
18,RNA1{[moe]([m5C])[sp].[moe](A)p.[moe](G)p.[moe](T)p.[moe](T)[sp].d(A)[sp].d(G)[sp].d(G)[sp].d(T)[sp].d(T)[sp].d(A)[sp].d(G)[sp].d(T)[sp].[moe](G)p.[moe]([m5C])p.[moe](A)[sp].[moe]([m5C])}$$$$ (last 3' nucleoside missing),4
19,RNA1{[moe]([m5C])[sp].[moe](A)p.[moe](G)p.[moe](T)p.[moe](T)p.[moe](A)[sp].d(G)[sp].d(G)[sp].d(T)[sp].d(T)[sp].d(A)[sp].d(G)[sp].d(T)[sp].d(G)[sp].[moe]([m5C])p.[moe](A)[sp].[moe]([m5C])}$$$$ (last 3' nucleoside missing),3.7
